pKi: −log10 of the molar value.
target: Mcl-1 protein (UniProtKB Q07820) (Homo sapiens (Human), UniProt Q07820); experiment: Inhibition of Mcl-1 by the fluorescence polarisation assay (Example A, Method A); assay type: binding; details: fluorescence polarization assay
How it was run: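 Protein (5 nM) and fluorescein-tagged peptide tracer (1 nM) incubated with 11-point compound series for 2 h at room temperature in HEPES/NaCl/Tween 20 buffer, pH 7.4, 5% DMSO. Displacement read as decrease in polarisation; IC50 fitted by 4-parameter logistic, converted to Ki (cKi or eKi).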

Sequence of Mcl-1 protein (Q07820 whole entry): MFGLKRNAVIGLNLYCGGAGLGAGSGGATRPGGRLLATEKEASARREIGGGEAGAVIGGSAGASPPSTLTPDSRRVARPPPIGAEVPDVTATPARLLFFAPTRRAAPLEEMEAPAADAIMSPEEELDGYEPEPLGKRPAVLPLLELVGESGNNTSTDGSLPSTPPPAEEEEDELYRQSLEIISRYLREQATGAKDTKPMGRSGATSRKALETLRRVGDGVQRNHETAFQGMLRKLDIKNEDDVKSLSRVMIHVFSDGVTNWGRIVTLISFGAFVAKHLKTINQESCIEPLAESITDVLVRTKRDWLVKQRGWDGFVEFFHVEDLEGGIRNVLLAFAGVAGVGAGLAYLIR

| SMILES | pKi |
| --- | --- |
| O=C(O)[C@]1(Nc2cccc(Cl)c2)CC[C@@]2(CC1)c1ccccc1CC2c1cccc(OCC2CC2)c1 (single isomer, unassigned) [Example 355, (1r,4r)-4-(3-chloroanilino)-2′-[3-(cyclopropylmethoxy)phenyl]-2′,3′-dihydrospiro[cyclohexane-1,1′-indene]-4-carboxylic acid] | 5.00 |
| Cc1ccc(C2Cc3ccccc3C23CCC(Nc2cccc(Br)c2)(C(=O)O)CC3)s1 (single isomer, unassigned) [Example 262, 4-(3-bromoanilino)-2′-(5-methylthiophen-2-yl)-2′,3′-dihydrospiro[cyclohexane-1,1′-indene]-4-carboxylic acid] | 6.63 |
| O=C(O)[C@]1(Nc2cccc(Cl)c2)CC[C@@]2(CC1)c1ccccc1CC2c1cccc2ccoc12 (single isomer, unassigned) [Example 293, (1r,4r)-2′-(1-benzofuran-7-yl)-4-(3-chloroanilino)-2′,3′-dihydrospiro[cyclohexane-1,1′-indene]-4-carboxylic acid] | 6.30 |
| COc1cccc(N2C(=O)c3ccccc3[C@]23CC[C@@](Nc2cccc(Br)c2)(C(=O)O)CC3)c1 [Example 30, (1s,4s)-4-(3-bromoanilino)-2′-(3-methoxyphenyl)-3′-oxo-2′,3′-dihydrospiro[cyclohexane-1,1′-isoindole]-4-carboxylic acid] | 5.03 |
| O=C(O)[C@]1(Nc2cccc(Cl)c2)CC[C@@]2(CC1)c1ccccc1CC2c1cccc(Cl)c1 (single isomer, unassigned) [Example 343, (1r,4r)-4-(3-chloroanilino)-2′-(3-chlorophenyl)-2′,3′-dihydrospiro[cyclohexane-1,1′-indene]-4-carboxylic acid] | 6.01 |
| CC(O)c1ccc2c(c1)[C@]1(CC[C@@](Nc3cccc(Cl)c3)(C(=O)O)CC1)C(Br)=C2 (stereo partly drawn) [Example 133, (1s,4s)-2′-bromo-4-(3-chloroanilino)-6′-(1-hydroxyethyl)spiro[cyclohexane-1,1′-indene]-4-carboxylic acid] | 7.24 |
| COc1cccc(C)c1C1Cc2ccccc2[C@]12CC[C@@](Nc1cccc(Cl)c1)(C(=O)O)CC2 (mixture of isomers) [Example 286, (1r,4r)-4-(3-chloroanilino)-2′-(2-methoxy-6-methylphenyl)-2′,3′-dihydrospiro[cyclohexane-1,1′-indene]-4-carboxylic acid] | 5.24 |
| O=C(O)[C@]1(Nc2cccc(Cl)c2)CC[C@@]2(CC1)c1ccccc1CC2c1ccc(Oc2ccncc2)cc1 (single isomer, unassigned) [Example 364, (1r,4r)-4-(3-chloroanilino)-2′-{4-[(pyridin-4-yl)oxy]phenyl}-2′,3′-dihydrospiro[cyclohexane-1,1′-indene]-4-carboxylic acid] | 6.34 |
| COCCOc1ccc2c(c1)[C@]1(CC2)CC[C@](Nc2cccc(Br)c2)(C(=O)O)CC1 [Example 67, (1r,4s)-4-(3-bromoanilino)-6′-(2-methoxyethoxy)-2′,3′-dihydrospiro[cyclohexane-1,1′-indene]-4-carboxylic acid] | 7.00 |
| O=C(O)[C@]1(Nc2cccc(Cl)c2)CC[C@@]2(CC1)c1ccccc1C[C@@H]2c1cccc(OCc2ccccc2)c1 [Example 333, (1r,2′R,4R)-2′-[3-(benzyloxy)phenyl]-4-(3-chloroanilino)-2′,3′-dihydrospiro[cyclohexane-1,1′-indene]-4-carboxylic acid] | 4.88 |
| O=C1CCc2c(OCCCC3Cc4ccccc4[C@]34CC[C@@](Nc3cccc(Cl)c3)(C(=O)O)CC4)cccc21 (stereo partly drawn) [Example 435, (1r,4r)-4-(3-chloroanilino)-2′-{3-[(1-oxo-2,3-dihydro-1H-inden-4-yl)oxy]propyl}-2′,3′-dihydrospiro[cyclohexane-1,1′-indene]-4-carboxylic acid] | 6.26 |
| O=C(O)[C@]1(Nc2cccc(Cl)c2)CC[C@@]2(CC1)c1ccccc1CC2CCCOc1cc(F)cc(Cl)c1 (stereo partly drawn) [Example 430, (1r,4r)-4-(3-chloroanilino)-2′-[3-(3-chloro-5-fluorophenoxy)propyl]-2′,3′-dihydrospiro[cyclohexane-1,1′-indene]-4-carboxylic acid] | 6.69 |
| O=C(O)[C@]1(Nc2cccc(Cl)c2)CC[C@@]2(CCc3ccccc32)CC1 [Example 69, (1r,4s)-4-(3-chloroanilino)-2′,3′-dihydrospiro[cyclohexane-1,1′-indene]-4-carboxylic acid] | 6.15 |
| Cc1cc(C)cc(C2=Cc3ccccc3C23CCC(Nc2cccc(Br)c2)(C(=O)O)CC3)c1 (single isomer, unassigned) [Example 238, 4-(3-bromoanilino)-2′-(3,5-dimethylphenyl)spiro[cyclohexane-1,1′-indene]-4-carboxylic acid] | 4.24 |
| COc1ccc2c(c1)[C@]1(CC[C@@](Nc3cccc(Br)c3)(C(=O)O)CC1)C(Cc1ccccc1)C2 (stereo partly drawn) [Example 127, (1r,4r)-2′-benzyl-4-(3-bromoanilino)-6′-methoxy-2′,3′-dihydrospiro[cyclohexane-1,1′-indene]-4-carboxylic acid] | 5.55 |
| COc1cccc(CCOCC2=Cc3ccccc3[C@]23CC[C@@](Nc2cccc(Cl)c2)(C(=O)O)CC3)c1 [Example 418, (1s,4s)-4-(3-chloroanilino)-2′-{[2-(3-methoxyphenyl)ethoxy]methyl}spiro[cyclohexane-1,1′-indene]-4-carboxylic acid] | 6.19 |
| Cc1cnccc1OC[C@H](C)CC1Cc2ccccc2[C@]12CC[C@@](Nc1cccc(Cl)c1)(C(=O)O)CC2 (stereo partly drawn) [Example 576, (1r,4R)-4-(3-chloroanilino)-2′-{(2R)-2-methyl-3-[(3-methylpyridin-4-yl)oxy]propyl}-2′,3′-dihydrospiro[cyclohexane-1,1′-indene]-4-carboxylic acid] | 6.91 |
| Cc1cc2nccc(OCCCC3Cc4ccccc4[C@]34CC[C@@](Nc3cccc(Cl)c3)(C(=O)O)CC4)c2s1 (stereo partly drawn) [Example 446, (1r,4r)-4-(3-chloroanilino)-2′-{3-[(2-methylthieno[3,2-b]pyridin-7-yl)oxy]propyl}-2′,3′-dihydrospiro[cyclohexane-1,1′-indene]-4-carboxylic acid] | 6.87 |
| O=C(O)[C@]1(Nc2cccc(Cl)c2)CC[C@@]2(CC1)c1ccccc1CC2c1coc2ccccc12 (single isomer, unassigned) [Example 285, (1r,4r)-2′-(1-benzofuran-3-yl)-4-(3-chloroanilino)-2′,3′-dihydrospiro[cyclohexane-1,1′-indene]-4-carboxylic acid] | 5.30 |
| COc1cc(C)cc(C2=Cc3ccccc3[C@]23CC[C@@](Nc2cccc(Cl)c2)(C(=O)O)CC3)c1 [Example 310, (1s,4s)-4-(3-chloroanilino)-2′-(3-methoxy-5-methylphenyl)spiro[cyclohexane-1,1′-indene]-4-carboxylic acid] | 6.14 |
| Cc1cc(OCCCC2Cc3ccccc3[C@]23CC[C@@](Nc2cccc(Cl)c2)(C(=O)O)CC3)ccn1 (stereo partly drawn) [Example 457, (1r,4r)-4-(3-chloroanilino)-2′-{3-[(2-methylpyridin-4-yl)oxy]propyl}-2′,3′-dihydrospiro[cyclohexane-1,1′-indene]-4-carboxylic acid] | 6.89 |
| O=C(O)[C@]1(Nc2cccc(Cl)c2)CC[C@]2(CC1)C(c1ccc(-c3ccccc3)o1)=Cc1ccccc12 [Example 317, (1s,4s)-4-(3-chloroanilino)-2′-(5-phenylfuran-2-yl)spiro[cyclohexane-1,1′-indene]-4-carboxylic acid] | 6.03 |
| O=C(O)C1(Nc2cccc(Br)c2)CCC2(C=Cc3ccccc32)CC1 (single isomer, unassigned) [Example 58, 4-(3-bromoanilino)spiro[cyclohexane-1,1′-indene]-4-carboxylic acid] | 6.16 |
| Cc1cncnc1OCCCC1Cc2ccccc2[C@]12CC[C@@](Nc1cccc(Cl)c1)(C(=O)O)CC2 (stereo partly drawn) [Example 441, (1r,4r)-4-(3-chloroanilino)-2′-{3-[(5-methylpyrimidin-4-yl)oxy]propyl}-2′,3′-dihydrospiro[cyclohexane-1,1′-indene]-4-carboxylic acid] | 7.16 |
| COc1ccc(Cl)c(C2Cc3ccccc3[C@]23CC[C@@](Nc2ccccc2)(C(=O)O)CC3)c1 (single isomer, unassigned) [Example 261, (1r,4r)-4-anilino-2′-(2-chloro-5-methoxyphenyl)-2′,3′-dihydrospiro[cyclohexane-1,1′-indene]-4-carboxylic acid] | 5.03 |
| CN1c2ccccc2[C@]2(CC[C@@](Nc3cccc(Br)c3)(C(=O)O)CC2)C1=O [Example 17, (1s,4s)-4-(3-bromoanilino)-1′-methyl-2′-oxo-1′,2′-dihydrospiro[cyclohexane-1,3′-indole]-4-carboxylic acid] | 4.64 |
| O=C(O)[C@]1(Nc2cccc(Cl)c2)CC[C@@]2(CC1)c1ccccc1CC2c1cccc(Cl)c1 (single isomer, unassigned) [Example 344, (1r,4r)-4-(3-chloroanilino)-2′-(3-chlorophenyl)-2′,3′-dihydrospiro[cyclohexane-1,1′-indene]-4-carboxylic acid] | 4.95 |
| COc1ccc(C2Cc3ccccc3[C@]23CC[C@@](Nc2ccccc2)(C(=O)O)CC3)c(C)c1 (single isomer, unassigned) [Example 257, (1r,4r)-4-anilino-2′-(4-methoxy-2-methylphenyl)-2′,3′-dihydrospiro[cyclohexane-1,1′-indene]-4-carboxylic acid] | 4.39 |
| Cn1ccc2cc(C3=Cc4ccccc4[C@]34CC[C@@](Nc3cccc(Cl)c3)(C(=O)O)CC4)ccc21 [Example 264, (1s,4s)-4-(3-chloroanilino)-2′-(1-methyl-1H-indol-5-yl)spiro[cyclohexane-1,1′-indene]-4-carboxylic acid] | 5.76 |
| COCC(F)(F)CC1Cc2ccccc2[C@]12CC[C@@](Nc1cccc(Cl)c1)(C(=O)O)CC2 (stereo partly drawn) [Example 502, (1r,4r)-4-(3-chloroanilino)-2′-(2,2-difluoro-3-methoxypropyl)-2′,3′-dihydrospiro[cyclohexane-1,1′-indene]-4-carboxylic acid] | 4.11 |

Source: US20240150293A1, “SPIROCYCLOHEXANE DERIVATIVES, PHARMACEUTICAL COMPOSITIONS CONTAINING THEM AND THEIR USES AS ANTI-APOPTOTIC INHIBITORS” (LES LABORATOIRES SERVIER, priority 2021, published 2024)
